# According to paper PMC10504751, “Chalcone/1,3,4-Oxadiazole/Benzimidazole hybrids as novel anti-proliferative agents inducing apoptosis and inhibiting EGFR & BRAFV^600E” (BMC Chemistry, 2023):
# What was measured:
# Test in all cases: NCI one-dose SRB anti-proliferative screen
# Assay type in all cases: cell-based
# 786-0 = details: Homo sapiens; 786-0, Renal cancer; NCI one dose; read-out: Cell growth inhibition %
# Summary of the method: (§1)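 Using a fixed 10 µM dose, anti-proliferative activity is measured through sulforhodamine B binding, read colorimetrically, in one of sixty human tumour lines.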
# A498 = details: Homo sapiens; A498, Renal cancer; NCI one dose; read-out: Cell growth inhibition %
# Summary of the method: as §1
# A549/ATCC = details: Homo sapiens; A549/ATCC, Non-Small Cell Lung Cancer; NCI one dose; read-out: Cell growth inhibition %
# Summary of the method: as §1
# ACHN = details: Homo sapiens; ACHN, Renal cancer; NCI one dose; read-out: Cell growth inhibition %
# Summary of the method: as §1
# BT-549 = details: Homo sapiens; BT-549, Breast cancer; NCI one dose; read-out: Cell growth inhibition %
# Summary of the method: as §1
# HCT-15 = details: Homo sapiens; HCT-15, Colon cancer; NCI one dose; read-out: Cell growth inhibition %
# Summary of the method: as §1
# HL-60(TB) = details: Homo sapiens; HL-60(TB), Leukemia; NCI one dose; read-out: Cell growth inhibition %
# Summary of the method: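 Activity reflects a single-point exposure at 10 µM, with cell mass determined by a sulforhodamine B dye assay.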
# LOX IMVI = details: Homo sapiens
# Summary of the method: as §1
# M14 = details: Homo sapiens; M14, Melanoma; NCI one dose; read-out: Cell growth inhibition %
# Summary of the method: as §1
# MALME-3M = details: Homo sapiens; MALME-3M, Melanoma; NCI one dose; read-out: Cell growth inhibition %
# Summary of the method: as §1
# MDA-MB-231/ATCC = details: Homo sapiens; MDA-MB-231/ATCC, Breast cancer; NCI one dose; read-out: Cell growth inhibition %
# Summary of the method: as §1
# MDA-MB-435 = details: Homo sapiens; MDA-MB-435, Melanoma; NCI one dose; read-out: Cell growth inhibition %
# Summary of the method: as §1
# NCI-H226 = details: Homo sapiens; NCI-H226, Non-Small Cell Lung Cancer; NCI one dose; read-out: Cell growth inhibition %
# Summary of the method: as §1
# NCI-H23 = details: Homo sapiens; NCI-H23, Non-Small Cell Lung Cancer; NCI one dose; read-out: Cell growth inhibition %
# Summary of the method: as §1
# NCI-H322M = details: Homo sapiens; NCI-H322M, Non-Small Cell Lung Cancer; NCI one dose; read-out: Cell growth inhibition %
# Summary of the method: as §1
# NCI-H522 = details: Homo sapiens; NCI-H522, Non-Small Cell Lung Cancer; NCI one dose; read-out: Cell growth inhibition %
# Summary of the method: as §1
# NCI/ADR-RES = details: Homo sapiens; NCI/ADR-RES, Ovarian Cancer; NCI one dose; read-out: Cell growth inhibition %
# Summary of the method: as §1
# OVCAR-3 = details: Homo sapiens; OVCAR-3, Ovarian Cancer; NCI one dose; read-out: Cell growth inhibition %
# Summary of the method: as §1
# OVCAR-4 = details: Homo sapiens; OVCAR-4, Ovarian Cancer; NCI one dose; read-out: Cell growth inhibition %
# Summary of the method: as §1
# OVCAR-5 = details: Homo sapiens; OVCAR-5, Ovarian Cancer; NCI one dose; read-out: Cell growth inhibition %
# Summary of the method: as §1
# OVCAR-8 = details: Homo sapiens; OVCAR-8, Ovarian Cancer; NCI one dose; read-out: Cell growth inhibition %
# Summary of the method: as §1
# PC-3 = details: Homo sapiens; PC-3, Prostate Cancer; NCI one dose; read-out: Cell growth inhibition %
# Summary of the method: as §1
# SF-539 = details: Homo sapiens; SF-539, CNS Cancer; NCI one dose; read-out: Cell growth inhibition %
# Summary of the method: as §1
# SK-MEL-28 = details: Homo sapiens; SK-MEL-28, Melanoma; NCI one dose; read-out: Cell growth inhibition %
# Summary of the method: as §1
# SK-MEL-2 = details: Homo sapiens; SK-MEL-2, Melanoma; NCI one dose; read-out: Cell growth inhibition %
# Summary of the method: as §1
# SN12C = details: Homo sapiens, SN 12C, Renal cancer, NCI one dose, read-out: Cell growth inhibition %
# Summary of the method: as §1
# SR = details: Homo sapiens; SR, Leukemia; NCI one dose; read-out: Cell growth inhibition %
# Summary of the method: as §1
# TK-10 = details: Homo sapiens; TK-10, Renal cancer; NCI one dose; read-out: Cell growth inhibition %
# Summary of the method: as §1
# U251 = details: Homo sapiens, U-251; U251, CNS Cancer; NCI one dose; read-out: Cell growth inhibition %
# Summary of the method: as §1
# UACC-62 = details: Homo sapiens; UACC-62, Melanoma; NCI one dose; read-out: Cell growth inhibition %
# Summary of the method: as §1
# UO-31 = details: Homo sapiens; UO-31, Renal cancer; NCI one dose; read-out: Cell growth inhibition %
# Summary of the method: as §1
compound,measurement,setting,value
"COc1ccc(-c2nc3cc(-c4nnc(SCC(=O)Nc5ccc(C(=O)/C=C/c6ccc(OC)c(OC)c6)cc5)o4)ccc3[nH]2)cc1 [Compound 7n, 2-{5-[2-(4-Methoxyphenyl)-1 H-benzo[d]imidazol-5-yl]-1,3,4-oxadiazol-2-ylthio}-N-{4-[(E)-3-(3,4-dimethoxyphenyl)acryloyl]phenyl}acetamide]",inhibition at 10 µM,786-0,8.7%
same,inhibition at 10 µM,A498,0%
same,inhibition at 10 µM,A549/ATCC,3.19%
same,inhibition at 10 µM,ACHN,10.7%
same,inhibition at 10 µM,BT-549,1.04%
same,inhibition at 10 µM,HCT-15,31.8%
same,inhibition at 10 µM,HL-60(TB),13.8%
same,activity at 10 µM,"LOX IMVI; LOX IMVI (Melanoma), 10 µM one dose, read-out: Growth Percent",44%
same,inhibition at 10 µM,"LOX IMVI; Melanoma, NCI one dose, read-out: Cell growth inhibition %",56.1%
same,inhibition at 10 µM,M14,10.6%
same,inhibition at 10 µM,MALME-3M,14.6%
same,inhibition at 10 µM,MDA-MB-231/ATCC,0%
same,inhibition at 10 µM,MDA-MB-435,6.15%
same,inhibition at 10 µM,NCI-H226,3.76%
same,inhibition at 10 µM,NCI-H23,19.9%
same,inhibition at 10 µM,NCI-H322M,5.07%
same,inhibition at 10 µM,NCI-H522,24.6%
same,inhibition at 10 µM,NCI/ADR-RES,6.05%
same,inhibition at 10 µM,OVCAR-3,14.3%
same,inhibition at 10 µM,OVCAR-4,13.2%
same,inhibition at 10 µM,OVCAR-5,0%
same,inhibition at 10 µM,OVCAR-8,7.51%
same,inhibition at 10 µM,PC-3,2.83%
same,inhibition at 10 µM,SF-539,13.3%
same,inhibition at 10 µM,SK-MEL-28,3.97%
same,inhibition at 10 µM,SK-MEL-2,6.27%
same,inhibition at 10 µM,SN12C,8.67%
same,inhibition at 10 µM,SR,73.6%
same,inhibition at 10 µM,TK-10,0%
same,inhibition at 10 µM,U251,25.3%
same,inhibition at 10 µM,UACC-62,15.8%
same,inhibition at 10 µM,UO-31,26.4%
